From patent US4015974A, “Amido phosphorothiolates” (priority 1972, dated 1977)

Tests used:
Format in all cases: in vivo
[1] = system: rice; test: Water application, phytotoxicity on rice (Table 2); set-up: key: 0: no effect; 1: very slightly affected; 2: slightly affected; 3: moderately affected; 4: considerably affected; 5: completely killed; settings: 25 days, score 0-5
How it was run: (§1)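 Ratings on a 0–5 scale taken 25 days post-treatment for rice injury, barnyard grass, and naturally emerging monochoria, false pimpernel and toothcup. Compounds as wettable powder went onto waterlogged paddy soil holding rice seedlings transplanted at 3 leaves and barnyard grass seed.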

[2] = system: large crabgrass (Digitaria sanguinalis); test: Pre-emergence application, herbicidal effect on large crabgrass (Table 1); set-up: key: 0: not damaged; 5: completely killed; settings: 20 days after application, score 0-5
How it was run: (§2)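 Compounds, formulated as water-diluted wettable powder, were applied to the soil surface after sowing and covering the seeds in pots of about 10 cm. Effects were rated on a 0 (no damage) to 5 (complete kill) scale after 20 days of greenhouse growth.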

[3] = system: barnyard grass (Echinochloa crus-galli); test: Water application, herbicidal effect on barnyard grass (Table 2); set-up: key: 0: not damaged; 5: completely killed; settings: 25 days, score 0-5
How it was run: as §1

[4] = system: common purslane (Portulaca oleracea); test: Pre-emergence application, herbicidal effect on common purslane (Table 1); set-up: key: 0: not damaged; 5: completely killed; settings: 20 days after application, score 0-5
How it was run: as §2

[5] = system: common lambsquarter (Chenopodium album); test: Pre-emergence application, herbicidal effect on common lambsquarter (Table 1); set-up: key: 0: not damaged; 5: completely killed; settings: 20 days after application, score 0-5
How it was run: as §2

[6] = system: redroot pigweed (Amaranthus retroflexus); test: Pre-emergence application, herbicidal effect on redroot pigweed (Table 1); set-up: key: 0: not damaged; 5: completely killed; settings: 20 days after application, score 0-5
How it was run: as §2

[7] = system: broad-leaved weeds, e.g., monochoria, false pimpernel and toothcup; test: Water application, herbicidal effect on broad-leaved weeds (Table 2); set-up: key: 0: not damaged; 5: completely killed; settings: 25 days, score 0-5
How it was run: as §1

[8] = system: barnyard grass (Echinochloa crus-galli); test: Pre-emergence application, herbicidal effect on barnyard grass (Table 1); set-up: key: 0: not damaged; 5: completely killed; settings: 20 days after application, score 0-5
How it was run: as §2

[9] = system: radish; test: Pre-emergence application, herbicidal effect on radish (Table 1); set-up: key: 0: not damaged; 5: completely killed; settings: 20 days after application, score 0-5
How it was run: as §2

CCCCCSP(=O)(OCC)SCC(=O)N1CCCC(C)C1 (stereo not drawn) [Compound 72]
Phytotoxicity on rice ([1]; 10 g/a): 0
Phytotoxicity on rice ([1]; 20 g/a): 0
Phytotoxicity on rice ([1]; 40 g/a): 0
Herbicidal effect, large crabgrass ([2]; 10 g./a.): 5
Herbicidal effect, large crabgrass ([2]; 20 g./a.): 5
Herbicidal effect, large crabgrass ([2]; 40 g./a.): 5
Herbicidal effects, barnyard grass ([3]; 10 g/a): 5
Herbicidal effects, barnyard grass ([3]; 20 g/a): 5
Herbicidal effects, barnyard grass ([3]; 40 g/a): 5
Herbicidal effect, common purslane ([4]; 10 g./a.): 3
Herbicidal effect, common purslane ([4]; 20 g./a.): 4
Herbicidal effect, common purslane ([4]; 40 g./a.): 5
Herbicidal effect, common lambsquarter ([5]; 10 g./a.): 4
Herbicidal effect, common lambsquarter ([5]; 20 g./a.): 4
Herbicidal effect, common lambsquarter ([5]; 40 g./a.): 5
Herbicidal effect, redroot pigweed ([6]; 10 g./a.): 3
Herbicidal effect, redroot pigweed ([6]; 20 g./a.): 4
Herbicidal effect, redroot pigweed ([6]; 40 g./a.): 5
Herbicidal effects, broad-leaved weeds ([7]; 10 g/a): 5
Herbicidal effects, broad-leaved weeds ([7]; 20 g/a): 5
Herbicidal effects, broad-leaved weeds ([7]; 40 g/a): 5
Herbicidal effect, barnyard grass ([8]; 10 g./a.): 4
Herbicidal effect, barnyard grass ([8]; 20 g./a.): 5
Herbicidal effect, barnyard grass ([8]; 40 g./a.): 5
Herbicidal effect, radish ([9]; 10 g./a.): 0
Herbicidal effect, radish ([9]; 20 g./a.): 0
Herbicidal effect, radish ([9]; 40 g./a.): 0

CCCCOP(=O)(SCC)SCC(=O)N1CCCCC1C (stereo not drawn) [Compound 15]
Phytotoxicity on rice ([1]; 10 g/a): 0
Phytotoxicity on rice ([1]; 20 g/a): 0
Phytotoxicity on rice ([1]; 40 g/a): 0
Herbicidal effect, large crabgrass ([2]; 10 g./a.): 5
Herbicidal effect, large crabgrass ([2]; 20 g./a.): 5
Herbicidal effect, large crabgrass ([2]; 40 g./a.): 5
Herbicidal effects, barnyard grass ([3]; 10 g/a): 5
Herbicidal effects, barnyard grass ([3]; 20 g/a): 5
Herbicidal effects, barnyard grass ([3]; 40 g/a): 5
Herbicidal effect, common purslane ([4]; 10 g./a.): 5
Herbicidal effect, common purslane ([4]; 20 g./a.): 5
Herbicidal effect, common purslane ([4]; 40 g./a.): 5
Herbicidal effect, common lambsquarter ([5]; 10 g./a.): 4
Herbicidal effect, common lambsquarter ([5]; 20 g./a.): 5
Herbicidal effect, common lambsquarter ([5]; 40 g./a.): 5
Herbicidal effect, redroot pigweed ([6]; 10 g./a.): 4
Herbicidal effect, redroot pigweed ([6]; 20 g./a.): 5
Herbicidal effect, redroot pigweed ([6]; 40 g./a.): 5
Herbicidal effects, broad-leaved weeds ([7]; 10 g/a): 5
Herbicidal effects, broad-leaved weeds ([7]; 20 g/a): 5
Herbicidal effects, broad-leaved weeds ([7]; 40 g/a): 5
Herbicidal effect, barnyard grass ([8]; 10 g./a.): 5
Herbicidal effect, barnyard grass ([8]; 20 g./a.): 5
Herbicidal effect, barnyard grass ([8]; 40 g./a.): 5
Herbicidal effect, radish ([9]; 10 g./a.): 0
Herbicidal effect, radish ([9]; 20 g./a.): 0
Herbicidal effect, radish ([9]; 40 g./a.): 0

CCCOP(=O)(SC)SCC(=O)N1CCCCC1CC (stereo not drawn) [Compound 83]
Phytotoxicity on rice ([1]; 10 g/a): 0
Phytotoxicity on rice ([1]; 20 g/a): 0
Phytotoxicity on rice ([1]; 40 g/a): 0
Herbicidal effect, large crabgrass ([2]; 10 g./a.): 5
Herbicidal effect, large crabgrass ([2]; 20 g./a.): 5
Herbicidal effect, large crabgrass ([2]; 40 g./a.): 5
Herbicidal effects, barnyard grass ([3]; 10 g/a): 5
Herbicidal effects, barnyard grass ([3]; 20 g/a): 5
Herbicidal effects, barnyard grass ([3]; 40 g/a): 5
Herbicidal effect, common purslane ([4]; 10 g./a.): 5
Herbicidal effect, common purslane ([4]; 20 g./a.): 5
Herbicidal effect, common purslane ([4]; 40 g./a.): 5
Herbicidal effect, common lambsquarter ([5]; 10 g./a.): 5
Herbicidal effect, common lambsquarter ([5]; 20 g./a.): 5
Herbicidal effect, common lambsquarter ([5]; 40 g./a.): 5
Herbicidal effect, redroot pigweed ([6]; 10 g./a.): 5
Herbicidal effect, redroot pigweed ([6]; 20 g./a.): 5
Herbicidal effect, redroot pigweed ([6]; 40 g./a.): 5
Herbicidal effects, broad-leaved weeds ([7]; 10 g/a): 5
Herbicidal effects, broad-leaved weeds ([7]; 20 g/a): 5
Herbicidal effects, broad-leaved weeds ([7]; 40 g/a): 5
Herbicidal effect, barnyard grass ([8]; 10 g./a.): 5
Herbicidal effect, barnyard grass ([8]; 20 g./a.): 5
Herbicidal effect, barnyard grass ([8]; 40 g./a.): 5
Herbicidal effect, radish ([9]; 10 g./a.): 0
Herbicidal effect, radish ([9]; 20 g./a.): 1
Herbicidal effect, radish ([9]; 40 g./a.): 2

CCOP(=O)(SCC)SCC(=O)N1CCCC(C)C1 (stereo not drawn) [Compound 71]
Phytotoxicity on rice ([1]; 10 g/a): 0
Phytotoxicity on rice ([1]; 20 g/a): 0
Phytotoxicity on rice ([1]; 40 g/a): 0
Herbicidal effect, large crabgrass ([2]; 10 g./a.): 5
Herbicidal effect, large crabgrass ([2]; 20 g./a.): 5
Herbicidal effect, large crabgrass ([2]; 40 g./a.): 5
Herbicidal effects, barnyard grass ([3]; 10 g/a): 5
Herbicidal effects, barnyard grass ([3]; 20 g/a): 5
Herbicidal effects, barnyard grass ([3]; 40 g/a): 5
Herbicidal effect, common purslane ([4]; 10 g./a.): 4
Herbicidal effect, common purslane ([4]; 20 g./a.): 5
Herbicidal effect, common purslane ([4]; 40 g./a.): 5
Herbicidal effect, common lambsquarter ([5]; 10 g./a.): 4
Herbicidal effect, common lambsquarter ([5]; 20 g./a.): 4
Herbicidal effect, common lambsquarter ([5]; 40 g./a.): 5
Herbicidal effect, redroot pigweed ([6]; 10 g./a.): 4
Herbicidal effect, redroot pigweed ([6]; 20 g./a.): 5
Herbicidal effect, redroot pigweed ([6]; 40 g./a.): 5
Herbicidal effects, broad-leaved weeds ([7]; 10 g/a): 5
Herbicidal effects, broad-leaved weeds ([7]; 20 g/a): 5
Herbicidal effects, broad-leaved weeds ([7]; 40 g/a): 5
Herbicidal effect, barnyard grass ([8]; 10 g./a.): 5
Herbicidal effect, barnyard grass ([8]; 20 g./a.): 5
Herbicidal effect, barnyard grass ([8]; 40 g./a.): 5
Herbicidal effect, radish ([9]; 10 g./a.): 0
Herbicidal effect, radish ([9]; 20 g./a.): 1
Herbicidal effect, radish ([9]; 40 g./a.): 2
